Experimental data: the supplement of paper PMC11208160

assay: recombinant barcode read abundance after kanamycin selection (control-corrected) (log10(CPM+1)); higher = more efficient recombination; sequences stand for … in AGTGCAGAGAAAATCGGCCAGTTTTCTCTGCCTGCAGTCCGCATGCCGT…ATTTATGCAGCGGACTGCCTTTCTCCCAAAGTGATAAACCGGACAGTATCATGGACCGGTTTTCCCGGTAATCCGTATTTGCAAGGTTGGTTTCACT; site = the 11-nt target
Outline: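 Duplicate cultures were plated either on chloramphenicol/ampicillin LB agar, serving as control, or on chloramphenicol/ampicillin/kanamycin with 0.1 mM IPTG. These came from a pooled E. coli library co-electroporated with a donor plasmid, each member pairing a target with an IS621 bridge RNA target-binding loop. Recombination efficiency equals averaged, control-corrected counts per million of recombinant-junction barcodes. It is listed as log10(CPM+1).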

Sequence | recombinant barcode read abundance (log10)
CATATTATGTGGGTTCTAACCTGTTGCCTAG [CATATTACTAG_LTGcore_TG_RTGcore_CT] (site CATATTACTAG) (LTG core: TG, RTG core: CT) | 0.0521
CGAGCCCAATGGGTTCTAACCTGTTGCTGAG [CGAGCCCCTCA_LTGcore_AA_RTGcore_CT] (site CGAGCCCCTCA) (LTG core: AA, RTG core: CT) | 0.0167
CGAGCCCACTGGGTTCTAACCTGTTGCTGAG [CGAGCCCCTCA_LTGcore_AC_RTGcore_CT] (site CGAGCCCCTCA) (LTG core: AC, RTG core: CT) | 0.0532
CGAGCCCAGTGGGTTCTAACCTGTTGCTGAG [CGAGCCCCTCA_LTGcore_AG_RTGcore_CT] (site CGAGCCCCTCA) (LTG core: AG, RTG core: CT) | 0.139
CGAGCCCATTGGGTTCTAACCTGTTGCTGAT [CGAGCCCCTCA_LTGcore_AT_RTGcore_AT] (site CGAGCCCCTCA) (LTG core: AT, RTG core: AT) | 0.0704
CGAGCCCCCTGGGTTCTAACCTGTTGCTGAG [CGAGCCCCTCA_LTGcore_CC_RTGcore_CT] (site CGAGCCCCTCA) (LTG core: CC, RTG core: CT) | 0.805
CGAGCCCCTTGGGTTCTAACCTGTTGCTGAG [CGAGCCCCTCA_LTGcore_CT_RTGcore_CT] (site CGAGCCCCTCA) (LTG core: CT, RTG core: CT) | 2.65
CGAGCCCCTTGGGTTCTAACCTGTTGCTGGG [CGAGCCCCTCA_LTGcore_CT_RTGcore_CC] (site CGAGCCCCTCA) (LTG core: CT, RTG core: CC) | 0.164
CGAGCCCCTTGGGTTCTAACCTGTTGCTGTC [CGAGCCCCTCA_LTGcore_CT_RTGcore_GA] (site CGAGCCCCTCA) (LTG core: CT, RTG core: GA) | 0.248
CGAGCCCCTTGGGTTCTAACCTGTTGCTGTT [CGAGCCCCTCA_LTGcore_CT_RTGcore_AA] (site CGAGCCCCTCA) (LTG core: CT, RTG core: AA) | 0.266
CGAGCCCGATGGGTTCTAACCTGTTGCTGTC [CGAGCCCCTCA_LTGcore_GA_RTGcore_GA] (site CGAGCCCCTCA) (LTG core: GA, RTG core: GA) | 0.188
CGAGCCCTGTGGGTTCTAACCTGTTGCTGCA [CGAGCCCCTCA_LTGcore_TG_RTGcore_TG] (site CGAGCCCCTCA) (LTG core: TG, RTG core: TG) | 0.646
CGCGCCCCATGGGTTCTAACCTGTTGCGGAG [CGCGCCCCTCC_LTGcore_CA_RTGcore_CT] (site CGCGCCCCTCC) (LTG core: CA, RTG core: CT) | 0.303
CGCGCCCCATGGGTTCTAACCTGTTGCGGTG [CGCGCCCCTCC_LTGcore_CA_RTGcore_CA] (site CGCGCCCCTCC) (LTG core: CA, RTG core: CA) | 0.162
CGCGCCCCCTGGGTTCTAACCTGTTGCGGGG [CGCGCCCCTCC_LTGcore_CC_RTGcore_CC] (site CGCGCCCCTCC) (LTG core: CC, RTG core: CC) | 0.117
CGCGCCCCGTGGGTTCTAACCTGTTGCGGAG [CGCGCCCCTCC_LTGcore_CG_RTGcore_CT] (site CGCGCCCCTCC) (LTG core: CG, RTG core: CT) | 0.167
CGCGCCCCGTGGGTTCTAACCTGTTGCGGCG [CGCGCCCCTCC_LTGcore_CG_RTGcore_CG] (site CGCGCCCCTCC) (LTG core: CG, RTG core: CG) | 0
CGCGCCCCTTGGGTTCTAACCTGTTGCGGAA [CGCGCCCCTCC_LTGcore_CT_RTGcore_TT] (site CGCGCCCCTCC) (LTG core: CT, RTG core: TT) | 0.319
CGCGCCCCTTGGGTTCTAACCTGTTGCGGCC [CGCGCCCCTCC_LTGcore_CT_RTGcore_GG] (site CGCGCCCCTCC) (LTG core: CT, RTG core: GG) | 0.215
CGCGCCCCTTGGGTTCTAACCTGTTGCGGGG [CGCGCCCCTCC_LTGcore_CT_RTGcore_CC] (site CGCGCCCCTCC) (LTG core: CT, RTG core: CC) | 0.105
CGCGCCCGGTGGGTTCTAACCTGTTGCGGCC [CGCGCCCCTCC_LTGcore_GG_RTGcore_GG] (site CGCGCCCCTCC) (LTG core: GG, RTG core: GG) | 0.307
CGCGCCCTGTGGGTTCTAACCTGTTGCGGAG [CGCGCCCCTCC_LTGcore_TG_RTGcore_CT] (site CGCGCCCCTCC) (LTG core: TG, RTG core: CT) | 0.301
CGGTCCCCTTGGGTTCTAACCTGTTGCCACC [CGGTCCCCTTG_LTGcore_CT_RTGcore_GG] (site CGGTCCCCTTG) (LTG core: CT, RTG core: GG) | 0.18

Sequence | recombinant barcode read abundance (log10)
CGGTCCCTATGGGTTCTAACCTGTTGCCATA [CGGTCCCCTTG_LTGcore_TA_RTGcore_TA] (site CGGTCCCCTTG) (LTG core: TA, RTG core: TA) | 0.282
CGGTCCCTGTGGGTTCTAACCTGTTGCCAAG [CGGTCCCCTTG_LTGcore_TG_RTGcore_CT] (site CGGTCCCCTTG) (LTG core: TG, RTG core: CT) | 0.0242
CGGTCCCTTTGGGTTCTAACCTGTTGCCAAA [CGGTCCCCTTG_LTGcore_TT_RTGcore_TT] (site CGGTCCCCTTG) (LTG core: TT, RTG core: TT) | 0.0728
GAGCCCAAATGGGTTCTAACCTGTTGCCTAG [GAGCCCACTAG_LTGcore_AA_RTGcore_CT] (site GAGCCCACTAG) (LTG core: AA, RTG core: CT) | 0.0475
GAGCCCACTTGGGTTCTAACCTGTTGCCTCA [GAGCCCACTAG_LTGcore_CT_RTGcore_TG] (site GAGCCCACTAG) (LTG core: CT, RTG core: TG) | 0.593
GAGCCCACTTGGGTTCTAACCTGTTGCCTCG [GAGCCCACTAG_LTGcore_CT_RTGcore_CG] (site GAGCCCACTAG) (LTG core: CT, RTG core: CG) | 0.1
GAGCCCACTTGGGTTCTAACCTGTTGCCTTA [GAGCCCACTAG_LTGcore_CT_RTGcore_TA] (site GAGCCCACTAG) (LTG core: CT, RTG core: TA) | 0.296
GAGCCCAGATGGGTTCTAACCTGTTGCCTAG [GAGCCCACTAG_LTGcore_GA_RTGcore_CT] (site GAGCCCACTAG) (LTG core: GA, RTG core: CT) | 0.163
GAGCCCAGATGGGTTCTAACCTGTTGCCTTC [GAGCCCACTAG_LTGcore_GA_RTGcore_GA] (site GAGCCCACTAG) (LTG core: GA, RTG core: GA) | 0.057
GAGCCCATATGGGTTCTAACCTGTTGCCTAG [GAGCCCACTAG_LTGcore_TA_RTGcore_CT] (site GAGCCCACTAG) (LTG core: TA, RTG core: CT) | 0.101
GAGCCCATGTGGGTTCTAACCTGTTGCCTAG [GAGCCCACTAG_LTGcore_TG_RTGcore_CT] (site GAGCCCACTAG) (LTG core: TG, RTG core: CT) | 0.0858
GAGCCCATTTGGGTTCTAACCTGTTGCCTAG [GAGCCCACTAG_LTGcore_TT_RTGcore_CT] (site GAGCCCACTAG) (LTG core: TT, RTG core: CT) | 0.0489
GAGGCCTAATGGGTTCTAACCTGTTGCCAAG [GAGGCCTCTTG_LTGcore_AA_RTGcore_CT] (site GAGGCCTCTTG) (LTG core: AA, RTG core: CT) | 0.153
GAGGCCTAGTGGGTTCTAACCTGTTGCCAAG [GAGGCCTCTTG_LTGcore_AG_RTGcore_CT] (site GAGGCCTCTTG) (LTG core: AG, RTG core: CT) | 0.106
GAGGCCTAGTGGGTTCTAACCTGTTGCCACT [GAGGCCTCTTG_LTGcore_AG_RTGcore_AG] (site GAGGCCTCTTG) (LTG core: AG, RTG core: AG) | 0.159
GAGGCCTCGTGGGTTCTAACCTGTTGCCAAG [GAGGCCTCTTG_LTGcore_CG_RTGcore_CT] (site GAGGCCTCTTG) (LTG core: CG, RTG core: CT) | 0.218
GAGGCCTCTTGGGTTCTAACCTGTTGCCAAG [GAGGCCTCTTG_LTGcore_CT_RTGcore_CT] (site GAGGCCTCTTG) (LTG core: CT, RTG core: CT) | 1.82
GAGGCCTCTTGGGTTCTAACCTGTTGCCACA [GAGGCCTCTTG_LTGcore_CT_RTGcore_TG] (site GAGGCCTCTTG) (LTG core: CT, RTG core: TG) | 0.453
GAGGCCTCTTGGGTTCTAACCTGTTGCCACT [GAGGCCTCTTG_LTGcore_CT_RTGcore_AG] (site GAGGCCTCTTG) (LTG core: CT, RTG core: AG) | 0.379
GAGGCCTCTTGGGTTCTAACCTGTTGCCAGG [GAGGCCTCTTG_LTGcore_CT_RTGcore_CC] (site GAGGCCTCTTG) (LTG core: CT, RTG core: CC) | 0.236
GAGGCCTCTTGGGTTCTAACCTGTTGCCAGT [GAGGCCTCTTG_LTGcore_CT_RTGcore_AC] (site GAGGCCTCTTG) (LTG core: CT, RTG core: AC) | 0.0794
GAGGCCTCTTGGGTTCTAACCTGTTGCCATA [GAGGCCTCTTG_LTGcore_CT_RTGcore_TA] (site GAGGCCTCTTG) (LTG core: CT, RTG core: TA) | 0.267
